{
  "source": "patent US6541463B1",
  "about": "“Inhibitors of type 5 and type 3 17β-hydroxysteroid dehydrogenase and methods for their use” (Endorecherche, Inc., priority 1998, dated 2003)",
  "key": {"[1]": {"test_system": "Shionogi mouse mammary carcinoma cells", "experiment": "Androgenic activity: stimulation of proliferation of Shionogi cells", "format": "cell-based", "method": "In column 9, the androgenic activity of preferred type 5 inhibitors expressed as the percentage of stimulation of proliferation of Shionogi cells at concentrations of 10^−7 M (left number) and 10^−6 M (right number) of inhibitor. The manner in which the stimulation is determined is described in “Other Tests; B-Androgenic/Antiandrogenic Activity”. Lower numbers are desirable. ND means that a determination was not done.\nAndrogenic/antiandrogenic activity of some preferred compounds has been measured using the Shionogi mouse mammary carcinoma cells.\nMinimal essential culture medium (MEM), non-essential amino acids, and fetal calf serum were purchased from Flow Laboratories. In order to remove endogenous steroids, serum was incubated overnight at 4° C. with 1% activated charcoal (Norit A, Fisher) and 0.1% Dextran T-70 (Pharmacia). A 2-h supplementary adsorption was performed at 25° C. in order to further remove protein-bound steroids. Serum was also inactivated by a 20-min incubation at 56° C.\n5α-dihydrotestosterone (DHT) was obtained from Steraloids. The antiandrogen hydroxyflutamide (OH-FLU) was kindly supplied by Drs. T. L. Nagabuschan and R. Neri (Schering Corporation, Kenilworth, U.S.A.).\nShionogi male mice bearing androgen-sensitive mammary tumors were obtained from Drs. Keishi Matsumoto, Osaka, Japan, and Yvonne Lefebvre, Ottawa, Canada. For primary culture, tumors were excised and washed in ice-cold sterile 25 mM Hepes buffer (137 mM NaCl; 5 mM KCl; 0.7 mM Na2HPO4; 10 mM glucose, pH 7.2). After mincing with scissors, the tumor minces were digested for 2 h at 37° C. in Hepes buffer containing 3.8 mg/ml collagenase (Clostridium, Boehringer), 1.5 mg/ml hyaluronidase II (Sigma), and 3% bovine serum albumin fraction V (Schwartz-Mann). Dispersed cells were collected by centrifugation (500×g for 10 min), washed twice by suspension in minimal essential medium (MEM) containing 5% dextran-coated charcoal-treated fetal calf serum (DCC-FCS), 1% non-essential amino acids, 10 IU/ml penicillin, 50 μg/ml streptomycin, and 100 nM dihydrotestosterone (DHT) (Steraloids).\nCells were plated in the same medium at a density of 75 000 cells/ml in 75 cm^2 flasks under an atmosphere of 5% carbon dioxide in air at 37° C. The medium was changed weekly. The steroids and antisteroids were dissolved in ethanol and kept in stock solutions chosen to yield final ethanol concentrations less than 0.01% in the culture medium.\nCells were subcultured at near-confidence by gentle digestion in a solution of 0.1% pancreatin (Flow Laboratories) in Hepes buffer containing 3 mM ethylenediaminetetraacetic acid (EDTA) (pH 7.2). Cells were pelleted by centrifugation, resuspended in culture medium, counted in a Coulter counter, and replated as described above. Soft agar cloning was performed as described (Stanley et al., Cell 10: 35-44, 1977) in the presence of 100 nM DHT.\nCells were plated in 24-well plates at a density of 20 000 cells/well. The indicated increasing concentrations of agents were added to triplicate dishes, and cells were grown for 10-12 days with changes of medium every 3-4 days. Cell number was measured by direct counting in a Coulter counter.\nED50 values of action of DHT and glucocorticoids were calculated according to a least-square regression as described (Rodbard, Endocrinology 94: 1427-1431, 1974). Statistical significance was calculated according to a multiple-range test (Kramer, Biometrics 12: 307-310,1956)."}, "[2]": {"molecular_target": "T1, human type 5 17β-hydroxysteroid dehydrogenase (Homo sapiens, UniProt P42330)", "T1 construct": "screen again a human placental λgt11 cDNA to get the full length cDNA clone; expressed in transfected cells; host or cells: human embryonal kidney 293 cells (pCMV / pCMV-neo vector)", "T1 sequence (P42330 1-323)": "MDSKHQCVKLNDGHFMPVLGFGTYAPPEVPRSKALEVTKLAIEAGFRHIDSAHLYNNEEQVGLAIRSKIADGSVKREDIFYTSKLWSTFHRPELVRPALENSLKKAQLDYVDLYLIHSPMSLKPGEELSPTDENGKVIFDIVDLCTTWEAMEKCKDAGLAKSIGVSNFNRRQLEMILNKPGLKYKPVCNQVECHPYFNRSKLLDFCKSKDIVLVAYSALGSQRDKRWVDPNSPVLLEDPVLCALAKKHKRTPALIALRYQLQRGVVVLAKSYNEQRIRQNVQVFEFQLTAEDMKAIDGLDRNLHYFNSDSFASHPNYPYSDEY", "experiment": "Inhibition of human type 5 17β-HSD activity in transfected 293 cells", "format": "cell-based", "set-up": "Inhibition Type V 17B-HSD % Inh. At 3 · 10^−7 (second value in parentheses): concentration or dose not given beside the values", "method": "The manner in which IC50 was determined is described in “Efficacy of the Preferred Inhibitors”. Lower numbers for IC50 are desirable.\nUsing a oligoprimer pair (5′-GGA-AAT-CGT-GAC-AGG-GAA-TGG-ATT-CCA-AAC-AG-3′, 5′-GGA-ATT-CTT-TAT-TGT-ATT-TCT-GGC-CTA-TGG-AGT-GAG-3′) derived from human aldoketoreductase (Qin et al., J. Steroid Biochem. Molec. Biol. 46: 673-679, 1993) and polymerase chain reaction (PCR), we have amplified from a human placental λgt11 cDNA library (Clontech Laboratories Inc., Palo Alto, Calif.) a cDNA fragment that was used as probe to screen again a human placental λgt11 cDNA to get the full length cDNA clone. The amplified cDNA fragment was purified on agarose gel and labeled with [α^32P]dCTP (Amersham Corp.) using the random primer labeling kit from Pharmacia Inc. PCR amplification reaction medium contained 50 mM KCl, 10 mM Tris-HCl, pH 8.3, 0.1% gelatin, 1 mM MgCl2, 250 μM dNTP, 0.25 μM oligonucleotide primers, and 200 ng of DNA prepared from human placental λgt11 cDNA library. The aqueous phase was overlaid with 75 μL of mineral oil to avoid evaporation. The mixture was heated at 98° C. for 5 min, following the temperature reduction to 72° C., 1 unit of Taq DNA polymerase was added. Using a DNA Thermal Cycler (Perkin-Elmer Corp.), 30 cycles of amplification were carried out using a step program (94° C., 1 min; 60° C., 1 min; and 72° C., 1 min)/cycle.\nApproximately 5×10^5 recombinant phage plaques were screened with 1.5×10^6 cpm/ml of the probe. Prehybridization was performed for 4 h at 42° C. in 50% formamide, 5× Denhardt's solution (1× Denhardt's being 0.02% polyvinyl pyrrolidone, 0.02 Ficoll, 0.02 bovine serum albumin), 5×SSPE (1×SSPE being 0.18M NaCl, 10 mM NaH2PO4, pH 7.4, 1 mM EDTA), 0.1% SDS, and 100 μg/ml yeast tRNA. The probe was denatured by heating at 100° C. for 5 min, before being added to the hybridization solution at 42° C. overnight. Filters were then washed twice at room temperature in 2×SSC (1×SSC being […], pH 7.0), 0.1% SDS, and twice in 0.1×SSC, 0.1% SDS at 60° C. Positive recombinant plaques were purified by replating twice and grown in liquid culture. Phage DNA were isolated by centrifugation for 90 min at 105,000×g, and DNA was then isolated by phenol extraction and precipitation with isopropanol (Karen et al. 1987; In: Current Protocols in Molecular Biology (F. M. Ausubel, R. Brent, E. Kingston, D. D. Moore, T. G. Seidman, T. A. Smith and K. Struhl, eds), Wiley & Sons, New York, pp. 1.13.1-1.13.6).\nThe phage DNA were digested with EcoRI restriction enzymes and the resulting cDNA fragments were inserted into the EcoRI site downstream to the cytomegalovirus (CMV) promoter of the pCMV vector (kindly provided by Dr. Matthew, Cold Spring Harbor, N.Y., USA). Recombinant pCMV plasmids were amplified in Escherichia Coli DH5α competent cells, and were isolated by alkaline lysis procedure (Maniatis et al., In: Molecular cloning: a laboratory manual, Cold Spring Harbor Laboratory., 1982). Sequencing of double-stranded plasmid DNA was performed according to the dideoxy chain termination method (Sanger et al., PNAS 74: 5453-5467, 1977) using a T7 DNA polymerase sequencing kit (Pharmacia LKB Biotechnology). To avoid errors, all sequences were determined by sequencing both strands of the DNA. Oligonucleotide primers were synthesized in our laboratory with a 394 DNA/RNA synthesizer (Applied Biosystem).\nThe pCMV vector contain 576 nucleotides of the pCMV promoter (followed by 432 bp of small t intron (fragment 4713-4570) and poly adenylation signal (2825-2536)of SV40, followed by 1989 bp of the Pvu II(628)-AatII (2617) fragment from pUC 19 vector (New England Biolabs) that contains an E. Coli origin of replication and an ampicillin resistance gene for propagation in E. Coli. […]"}},
  "data": [
    {"compound": "CCCCCO[C@]1(C(C)=O)CC[C@H]2[C@@H]3C=C(C)C4=CC(=O)CC[C@]4(C)[C@H]3CC[C@@]21C", "note": "[EM-1127, 6-Methyl-17α-pentyloxy-4,6-pregnadien-3,20-dione]", "values": [
      {"measurement": "Androgenic Activity Shionogi, Basal", "setting": "[1]; E^−6", "result": 92},
      {"measurement": "Androgenic Activity Shionogi, Basal", "setting": "[1]; E^−7", "result": 85},
      {"measurement": "Inhibition Type V 17β-HSD % Inh.", "setting": "[2]; at 3.10^−6", "result": "91) %"},
      {"measurement": "Inhibition Type V 17β-HSD % Inh.", "setting": "[2]; at 3.10^−7", "result": "(71%"}
    ]},
    {"compound": "CC(=O)O[C@]1(C(C)=O)CC[C@H]2[C@@H]3C[C@H](C)C4=CC(=O)CC[C@]4(C)[C@H]3CC[C@@]21C", "note": "[Medroxyprogesterone acetate, reference compound]", "values": [
      {"measurement": "inhibition of type 5 17β-hydroxysteroid dehydrogenase (in words)", "setting": "[2]", "result": "inhibit that type 5 enzyme"}
    ]},
    {"compound": "CC12CCC(=O)C=C1C=CC1C2CCC2(C)C(=O)C3CCCC3C12", "note": "(centres unmarked) [SA-208-59]", "values": [
      {"measurement": "Inhibition Type V 17B-HSD % Inh. At 3 · 10^−7 (first value in parentheses)", "setting": "[2]; first of two concentrations, 3 · 10^−7", "result": "(72%"},
      {"measurement": "Inhibition Type V 17B-HSD % Inh. At 3 · 10^−7 (second value in parentheses)", "setting": "[2]; second of two concentrations, 3 · 10^−7", "result": "88) %"}
    ]},
    {"compound": "CC(=O)O[C@]1(C(C)=O)CC[C@H]2[C@@H]3C=C(Cl)C4=CC(=O)CC[C@]4(C)[C@H]3CC[C@@]21C", "note": "[chlormadinone acetate, reference compound]", "values": [
      {"measurement": "inhibition of type 5 17β-hydroxysteroid dehydrogenase (in words)", "setting": "[2]", "result": "inhibit that type 5 enzyme"}
    ]}
  ]
}
